Data as given in patent publication US20100249043A1, “COMPOSITIONS AND METHODS FOR PROMOTING HAIR GROWTH” (LA CANADA VENTRURES, INC., priority 2009, published 2010).

Tested on: scalp hair
Test: scalp hair conditioner / scalp serum applied to dry scalp, monthly follow up with photographs
Format: in vivo
Conditions: applied to dry scalp after cleansing
Source text: The subjects were asked to apply the scalp serum with various concentrations of prostaglandin (dechloroethylcloprostenolamide from 0 wt % to 0.03 wt %), and a placebo is applied on the separate portion of the scalp. […] All the agents are applied directly to dry scalp after cleansing. Follow up are done monthly and photographs are taken.

## dechloroethylcloprostenolamide [prostaglandin]
  time to response on scalp: 3 month
